Assay results: ChEMBL document CHEMBL4138237, “Activation of anti-oxidant Nrf2 signaling by enone analogues of curcumin” (Eur J Med Chem, 2018)
Activity calls are given as the source filed them.

Experiments:
[1] = biological target: T1, Nuclear factor erythroid 2-related factor 2 (Homo sapiens) (UniProt Q16236); experiment: Activation of Nrf2 (unknown origin) expressed in human HepG2 cells at 15 uM after 5 hrs by ARE-driven luciferase reporter gene assay relative to control; type: cell-based
T1 sequence (whole entry): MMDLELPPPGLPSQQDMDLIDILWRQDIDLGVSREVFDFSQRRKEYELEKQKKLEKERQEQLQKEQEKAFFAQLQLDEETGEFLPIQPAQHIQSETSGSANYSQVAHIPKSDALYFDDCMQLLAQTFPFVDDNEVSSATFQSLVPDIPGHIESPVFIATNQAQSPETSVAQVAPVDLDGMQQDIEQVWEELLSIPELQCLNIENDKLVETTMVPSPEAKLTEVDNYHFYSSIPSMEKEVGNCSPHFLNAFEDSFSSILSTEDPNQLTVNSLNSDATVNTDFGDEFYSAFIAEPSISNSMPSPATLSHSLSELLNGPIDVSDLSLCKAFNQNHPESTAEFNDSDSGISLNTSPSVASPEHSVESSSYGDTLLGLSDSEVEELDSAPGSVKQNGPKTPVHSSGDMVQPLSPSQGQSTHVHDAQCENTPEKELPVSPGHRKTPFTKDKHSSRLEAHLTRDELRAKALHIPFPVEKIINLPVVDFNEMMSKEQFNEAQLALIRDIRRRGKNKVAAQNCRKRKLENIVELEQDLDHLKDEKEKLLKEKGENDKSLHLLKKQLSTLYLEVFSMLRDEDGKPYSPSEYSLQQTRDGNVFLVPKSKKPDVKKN

[2] = biological target: Luciferin 4-monooxygenase (Photinus pyralis, UniProt P08659); experiment: Effect on firefly luciferase activity expressed in human HepG2 cells at low concentration after 5 hrs by luminescence assay; type: ADME, cell-based; conditions: hepg2, 5 h
Luciferin 4-monooxygenase, sequence (P08659 whole entry): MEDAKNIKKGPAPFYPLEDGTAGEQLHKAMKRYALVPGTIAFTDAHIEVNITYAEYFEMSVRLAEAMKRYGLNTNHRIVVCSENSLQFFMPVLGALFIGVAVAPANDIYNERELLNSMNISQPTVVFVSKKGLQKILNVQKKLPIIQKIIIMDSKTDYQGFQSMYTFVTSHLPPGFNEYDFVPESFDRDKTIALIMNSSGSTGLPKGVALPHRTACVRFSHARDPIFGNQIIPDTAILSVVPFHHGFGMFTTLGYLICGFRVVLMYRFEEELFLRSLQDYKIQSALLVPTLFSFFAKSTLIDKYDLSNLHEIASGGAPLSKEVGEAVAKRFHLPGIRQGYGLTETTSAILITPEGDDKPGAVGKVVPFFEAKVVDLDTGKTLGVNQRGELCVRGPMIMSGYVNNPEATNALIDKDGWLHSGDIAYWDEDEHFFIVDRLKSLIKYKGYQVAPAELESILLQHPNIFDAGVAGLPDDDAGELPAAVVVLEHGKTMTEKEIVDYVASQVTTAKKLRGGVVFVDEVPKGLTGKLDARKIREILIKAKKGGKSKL

Activity [1]	fold change (FC) [1]	Structure (SMILES)	Activity [2]
Active	–	CCc1c(/C=C/C(=O)/C=C/c2ccc(OC)c(OC)c2CC)ccc(OC)c1OC	Non-Toxic
Active	–	O=C(O)c1ccc(/C=C/C(=O)c2ccccc2)cc1	Non-Toxic
–	–	COc1cc(/C=C2\CCC/C(=C\c3ccc(O)c(OC)c3)C2=O)ccc1O [CYCLOVALONE]	Non-Toxic
Active	–	O=C1/C(=C/c2c(Cl)cccc2Cl)CCC/C1=C\c1c(Cl)cccc1Cl	Non-Toxic
–	–	COc1ccc(/C=C2\CN(C)C/C(=C\c3ccc(OC)c(OC)c3OC)C2=O)c(OC)c1OC	Non-Toxic
inactive	–	O=C(/C=C/c1ccc(Br)cc1)CC(=O)/C=C/c1ccc(Br)cc1	Non-Toxic
–	–	O=C1/C(=C/c2cccc(F)c2)CCC/C1=C\c1cccc(F)c1	Non-Toxic
–	–	COc1cc(/C=C2\CCC/C(=C\c3cc(OC)c(OC)c(OC)c3)C2=O)cc(OC)c1OC	Non-Toxic
–	–	COc1cccc(/C=C/C(=O)/C=C/c2cccc(OC)c2OC)c1OC	Non-Toxic
–	–	COc1ccc(/C=C2\CN(C)C/C(=C\c3ccc(OC)cc3OC)C2=O)c(OC)c1	Non-Toxic
inactive	–	Cc1ccc(/C=C/C(=O)CC(=O)/C=C/c2ccc(C)cc2)cc1	Non-Toxic
–	–	COc1cccc(/C=C2\CN(C)C/C(=C\c3cccc(OC)c3OC)C2=O)c1OC	Non-Toxic
–	18.5	O=C(/C=C/c1ccccc1O)/C=C/c1ccccc1O	Non-Toxic
–	–	CSc1ccc(/C=C2\CN(C)C/C(=C\c3ccc(SC)cc3)C2=O)cc1	Non-Toxic
–	–	COc1cccc(/C=C2\CCC/C(=C\c3cccc(OC)c3OC)C2=O)c1OC	Non-Toxic
inactive	–	O=C(/C=C/c1c(Cl)cccc1Cl)/C=C/c1c(Cl)cccc1Cl	Non-Toxic
Active	–	O=C(/C=C/c1ccccc1)/C=C/c1ccccc1	Non-Toxic
–	–	COc1ccc(/C=C/C(=O)/C=C/c2ccccc2)cc1	Non-Toxic
Active	–	COc1ccc(/C=C/C(=O)CC(=O)/C=C/c2ccc(OC)c(O)c2)cc1O	Non-Toxic
–	–	O=C(CCc1ccccc1)C(Cc1ccccc1)C(=O)CCc1ccccc1	Non-Toxic
inactive	–	O=C(/C=C/c1ccc(Cl)cc1)/C=C/c1ccc(Cl)cc1	Non-Toxic
–	–	COc1ccc(/C=C2\CN(C)C/C(=C\c3ccc(OC)cc3)C2=O)cc1	Non-Toxic

Activity [1]	fold change (FC) [1]	Structure (SMILES)	Activity [2]
–	29.9	Cc1ccc(C(=O)/C=C/c2ccccc2)c(C)c1	Non-Toxic
–	–	N#Cc1ccc(C(=O)/C=C/c2ccccc2)cc1	Non-Toxic
inactive	–	O=C(/C=C/c1ccc(Cl)cc1)CC(=O)/C=C/c1ccc(Cl)cc1	Non-Toxic
Active	–	O=C(/C=C/c1ccccc1)c1ccccc1 [CHALCONE]	Non-Toxic
–	–	COc1cccc(OC)c1/C=C/C(=O)/C=C/c1c(OC)cccc1OC	Non-Toxic
inactive	–	O=C(/C=C/c1ccc(Br)cc1)/C=C/c1ccc(Br)cc1	Non-Toxic
Active	–	COc1ccc(/C=C/C(=O)CC(=O)/C=C/c2ccc(OC)cc2OC)c(OC)c1	Non-Toxic
–	–	COc1cccc(/C=C/C(=O)CC(=O)/C=C/c2cccc(OC)c2OC)c1OC	Non-Toxic
–	–	COc1ccc(/C=C2\CCC/C(=C\c3ccc(OC)c(OC)c3OC)C2=O)c(OC)c1OC	Non-Toxic
Active	–	COc1cc(C(=O)/C=C/c2ccccc2)ccc1O	Non-Toxic
Active	–	COc1ccc(OC)c(/C=C/C(=O)CC(=O)/C=C/c2cc(OC)ccc2OC)c1	Non-Toxic
–	–	COc1cc(/C=C/C(=O)/C=C/c2ccc(OC(C)=O)c(OC)c2)ccc1OC(C)=O	Non-Toxic
Active	–	COc1cccc(/C=C/C(=O)CC(=O)/C=C/c2cccc(OC)c2)c1	Non-Toxic
–	–	O=C1/C(=C/c2ccc(Br)cc2)CCC/C1=C\c1ccc(Br)cc1	Non-Toxic
–	22.6	COc1cc(/C=C/C(=O)CC(=O)/C=C/c2ccc(O)c(OC)c2)ccc1O [CURCUMIN]	Non-Toxic
Active	–	CN1C/C(=C\c2cccc(Br)c2)C(=O)/C(=C/c2cccc(Br)c2)C1	Non-Toxic
Active	–	COc1cc(/C=C/C(=O)c2ccc(O)c(OC)c2)ccc1O	Non-Toxic
–	–	COc1ccc(/C=C/C(=O)/C=C/c2ccc(OC)c(O)c2)cc1O	Non-Toxic
inactive	–	COc1ccc(/C=C2\CCC/C(=C\c3ccc(OC)cc3)C2=O)cc1	Non-Toxic
–	–	COc1ccc(/C=C/C(=O)/C=C/c2ccc(OC)cc2OC)c(OC)c1	Non-Toxic
–	–	COc1cc(CCC(=O)C(Cc2ccccc2)C(=O)CCc2ccc(O)c(OC)c2)ccc1O	Non-Toxic
inactive	–	CN(C)c1ccc(/C=C/C(=O)/C=C/c2ccc(N(C)C)cc2)cc1	Non-Toxic

Activity [1]	fold change (FC) [1]	Structure (SMILES)	Activity [2]
–	–	O=C(/C=C(\O)c1ccccc1)c1ccccc1	Non-Toxic
–	–	O=C1/C(=C/c2cccc(O)c2)CCC/C1=C\c1cccc(O)c1	Non-Toxic
Active	–	Cc1cccc(/C=C2\CN(C)C/C(=C\c3cccc(C)c3)C2=O)c1	Non-Toxic
–	–	CC(C(=O)CCc1ccccc1)C(=O)CCc1ccccc1	Non-Toxic
–	–	O=C(/C=C/c1cccc(O)c1)/C=C/c1cccc(O)c1	Non-Toxic
–	–	COc1ccc(/C=C/C(C)=O)cc1	Non-Toxic
–	–	COc1cc(/C=C/C(=O)/C=C/c2ccccc2)ccc1O	Non-Toxic
–	–	COc1ccccc1/C=C/C(=O)CC(=O)/C=C/c1ccccc1OC	Non-Toxic
–	–	COc1ccccc1/C=C/C(=O)/C=C/c1ccccc1OC	Non-Toxic
–	–	CCOc1ccc(/C=C2\CN(C)C/C(=C\c3ccc(OCC)cc3)C2=O)cc1	Non-Toxic
–	–	CC(=O)/C=C/c1ccccc1O	Non-Toxic
–	–	COc1ccc(OC)c(/C=C2\CCC/C(=C\c3cc(OC)ccc3OC)C2=O)c1	Non-Toxic
–	–	O=C(O)c1ccc(C(=O)/C=C/c2ccccc2)cc1	Non-Toxic
–	–	COc1ccc(/C=C/C(=O)/C=C/c2ccc(OC)c(OC)c2)cc1OC	Non-Toxic
–	–	O=C(/C=C/c1ccccc1)/C(Cc1ccccc1)=C(O)/C=C/c1ccccc1	Non-Toxic
–	–	COc1cccc(/C=C2\CN(C)C/C(=C\c3cccc(OC)c3)C2=O)c1	Non-Toxic
–	–	COc1cc(/C=C2\CN(C)C/C(=C\c3cc(OC)cc(OC)c3)C2=O)cc(OC)c1	Non-Toxic
–	–	CC(=O)Oc1ccc(/C=C/C(=O)/C=C/c2ccc(OC(C)=O)cc2)cc1	Non-Toxic
–	–	COc1ccc(/C=C/C(=O)CC(=O)/C=C/c2ccc(OC)c(OC)c2)cc1OC [TETRAMETHOXYCURCUMIN]	Non-Toxic
–	–	COc1ccc(/C=C2\CCC/C(=C\c3ccc(OC)c(OC)c3)C2=O)cc1OC	Non-Toxic
–	–	COc1cc(/C=C/C(=O)/C=C/c2cc(OC)cc(OC)c2)cc(OC)c1	Non-Toxic
–	–	C/C(C(=O)/C=C/c1ccccc1)=C(O)\C=C\c1ccccc1	Non-Toxic
